Data taken from patent publication US20090076029A1 (Palatin Technologies, Inc., priority 2007, published 2009).
Read-outs that look alike come from different tables or passages of the source.

Columns and labels:
MC1-R [1] = molecular target: T1, MC1-R; experiment: Competitive inhibition assay using [I125]-NDP-α-MSH, MC1-R membranes; assay type: binding, mouse
T1 construct: other: 1 μM compound

hMC3-R [2] = molecular target: T2, hMC3-R; experiment: Competitive inhibition assay using [I125]-NDP-α-MSH, hMC3-R membranes; assay type: binding, human; conditions: for Ki: read-out: Ki (nM) (NDP-α-MSH) MC3-R; for Inhibition at 1 μM (NDP-α-MSH) MC3-R: 1 μM compound
T2 construct: expressed in transfected cells; host or cells: HEK-293
In short: (§1)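 Membranes from HEK-293 cells expressing hMC3-R, hMC4-R or hMC5-R, or from mouse B-16 melanoma cells (MC1-R), with 0.2–0.4 nM [125I]-NDP-α-MSH in 50 mM HEPES pH 7.2 with Mg2+, Ca2+, K+. Test compound typically 1 μM; 90 min, room temperature; filtration, gamma counting. Percent inhibition vs specific binding (1 μM α-MSH), triplicate mean, negatives as 0%.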

hMC4-R [3] = molecular target: T3, hMC4-R; experiment: Competitive inhibition assay using [I125]-NDP-α-MSH, hMC4-R membranes; assay type: binding, human; conditions: for Inhibition at 1 μM (NDP-α-MSH) MC4-R: 1 μM compound
T3 construct: expressed in transfected cells; host or cells: HEK-293

hMC5-R [4] = molecular target: T4, hMC5-R; experiment: Competitive inhibition assay using [I125]-NDP-α-MSH, hMC5-R membranes; assay type: binding, human; conditions: for Ki: read-out: Ki (nM) (NDP-α-MSH) MC5-R; for Inhibition at 1 μM (NDP-α-MSH) MC5-R: 1 μM compound
T4 construct: expressed in transfected cells; host or cells: HEK-293
In short: as §1

hMC4-R [5] = system: T3, hMC4-R; assay type: binding, human; conditions: for Inhibition at 1 μM (AgRP) MC4-R: 1 μM compound
In short: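 Membranes from hMC4-R-expressing cells incubated 1 h at 37 °C with 0.2 nM [I^125]-AgRP (83-132) and increasing compound in 25 mM HEPES pH 7.5, 100 mM NaCl, 2 mM CaCl2, 2 mM MgCl2, 0.3 mM 1,10-phenanthroline, 0.5% BSA. Filtration, gamma counting; specific binding kept ≤10% of added counts.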

hMC4-R [6] = system: T3, hMC4-R; experiment: cAMP functional assay in HEK-293 cells expressing MC4-R (agonist, neutral antagonist/Schild); assay type: cell-based, human; conditions: for functional status (pAg, Ag, Antag, Inactive): MC4-R, Table 1; for intrinsic activity at MC4-R: NDP-α-MSH maximal stimulation = 1.0; for functional status at MC4-R: mostly at 1 μM
In short: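 Cells in EBSS/HEPES pH 7.5 with 0.3 mM IBMX, exposed to compound (0.05-5000 nM, 1% DMSO) for 1 h at 37 °C; cAMP by EIA, EC50 by nonlinear regression. Antagonism: 30 min compound pre-incubation, then 1 nM NDP-α-MSH for 1 h; Schild analysis over 0.005-5000 nM agonist gives pA2.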

MC1-R [7] = system: T5, MC1-R; experiment: cAMP functional assay, B-16 mouse melanoma cells expressing MC1-R; assay type: cell-based; conditions: cAMP assay at 1 μM
T5 construct: from B-16 mouse melanoma cells (containing MC1-R); endogenous in cells; host or cells: B-16 mouse melanoma cells

hMC3-R [8] = system: T2, hMC3-R; experiment: cAMP functional assay, HEK-293 cells expressing hMC3-R; assay type: cell-based, human; conditions: cAMP assay at 1 μM
Method: General method for EC50 determination in functional activity assay. Functional evaluation of compounds at melanocortin receptors was performed by measuring the accumulation of intracellular cAMP in HEK-293 cells expressing hMC3-R, hMC4-R or hMC5-R, and in B-16 mouse melanoma cells expressing MC1-R. Cells suspended in Earle's Balanced Salt Solution containing 10 mM HEPES (pH 7.5), 5 mM MgCl2, 1 mM glutamine, 0.1% albumin and 0.6 mM 3-isobutyl-1-methyl-xanthine, a phosphodiesterase inhibitor, were plated in 96 well plates at a density of 0.5×10^5 cells per well. Cells were incubated with the test compounds in the presence or absence of α-MSH for 1 hour at 37° C. cAMP levels in the cell lysates were measured using an EIA kit (Amersham). Data analysis and EC50 values were determined using nonlinear regression analysis with Prism Graph-Pad software.
Functional status. The agonist/antagonist status with respect to MC1-R, MC-3R, MC4-R and MC5-R of certain compounds of the invention was determined.

hMC5-R [9] = system: T4, hMC5-R; experiment: cAMP functional assay, HEK-293 cells expressing hMC5-R; assay type: cell-based, human; conditions: cAMP assay at 1 μM
MC4-R [10] = system: T6, MC4-R; experiment: Assay for inverse agonist, HEK-293 cells expressing MC4-R; assay type: cell-based; conditions: FIG. 3
T6 construct: expressed in transfected cells; host or cells: HEK-293
Method: Assay for inverse agonist. […] The experimental protocol was essentially as described above. The cells were exposed to the test compounds over a concentration range of 0.05 nM to 5000 nM for 1 hour at 37° C. AgRP (83-132) was used as the reference inverse agonist. Data analysis and EC50 values were determined by using nonlinear regression analysis with the Prism Graph-Pad software.

MC1-R [11] = experiment: Competitive inhibition assay using [I125]-NDP-α-MSH, MC1-R membranes; assay type: binding, mouse; conditions: for Inhibition at 1 μM (NDP-α-MSH) MC1-R: 1 μM compound
MC4-R [12] = system: T6, MC4-R; assay type: cell-based; conditions: HEK-293 cells expressing MC4-R
Text: Assay for Antagonists of AgRP in HEK-293/MC4-R Cells stimulated with Forskolin. […] AgRP causes a decrease in the basal adenylyl cyclase activity only to the extent of 40-50%. Even though the AgRP-induced decrease in cAMP levels is substantial, conventional assay methods, such as those described above, have limited sensitivity, precluding detecting small changes that are reversed by certain antagonists to AgRP. This limitation was circumvented by the use of a non-specific activator, forskolin, which directly activates adenylyl cyclase activity and raises cyclic AMP levels. Forskolin, a cell permeable diterpenoid initially isolated from Coleus forskohlii, has the ability to stimulate adenylyl cyclase activity and increase intracellular cAMP, thus activating cAMP-dependent protein kinase and other cAMP receptor proteins. See, e.g., Seamon, K. B., Daly, J. W. Forskolin: a unique diterpene activator of cyclic AMP-generating system. J. Cyclic Nucleotide Res. 7(4):201-24, 1981; Fradkin, J. E., Cook, G. H., Kilhoffer, M. C., Wolff, J. Forskolin stimulation of thyroid adenylate cyclase and cyclic 3′,5′-adenosine monophosphate accumulation. Endocrinology 111 (3):849-56, 1982; Barber, R., Goka, T. J. Adenylate cyclase activity as a function of forskolin concentration. J. Cyclic Nucleotide Protein Phosphor. Res. 10(1):23-9, 1985; and Laurenza, A., Sutkowski, E. M., Seamon, K. B. Forskolin: a specific stimulator of adenylyl cyclase or a diterpene with multiple sites of action? Trends Pharmacol. Sci. 10(11):442-7, 1989. […] The EC50 value was about 5 μM. AgRP inhibited the forskolin-induced response by 65% at a concentration of 10 nM. The difference in forskolin stimulated response and the inhibition due to AgRP in the cAMP levels was exploited to screen compounds for their ability to antagonize AgRP inhibition and […] levels of cAMP accumulation.
Experimental details for assays included incubating cells with the test compound in the presence of the inverse agonist AgRP with the extent of reversal of the AgRP effect measured by following the increase in the levels of intracellular cAMP. HEK-293 cells expressing MCR-4 were suspended in 10 mM HEPES/Earle's Balanced Salt Solution at pH 7.5 with the phosphodiesterase inhibitor IBMX, and pre-incubated for 30 minutes with the compounds (0.5-5000 nM). The cells were then treated with AgRP (10 nM) and incubated further for 30 minutes. The cells were then treated with forskolin (10 μM) and incubated for an additional 60 minutes. Cells were lysed and cAMP was measured by EIA kit (Amersham).

[13] = MC4-R membranes, Table 1, read-out: Ki (nM) I125-NPD-α-MSH
[14] = read-out: Ki (nM) (NDP-α-MSH) MC4-R
[15] = MC4-R membranes, Table 1, read-out: Ki (nM) I125-AgRP

Row | Molecule | Ki (hMC3-R [2]) | Ki (hMC4-R [3]; [13]) | Ki (hMC4-R [3]; [14]) | Ki (hMC5-R [4]) | Inhibition at 1 μM (AgRP) MC4-R (hMC4-R [5]) | Ki (hMC4-R [5]; [15]) | Ki (hMC4-R [5]; read-out: Ki (nM) (AgRP) MC4-R) | functional status (pAg, Ag, Antag, Inactive) (hMC4-R [6]) | intrinsic activity at MC4-R (hMC4-R [6]) | functional status at MC4-R (hMC4-R [6]; cAMP assay) | Ki (MC1-R [11]) | Inhibition at 1 μM (NDP-α-MSH) MC1-R (MC1-R [11]) | Inhibition at 1 μM (NDP-α-MSH) MC3-R (hMC3-R [2]) | Inhibition at 1 μM (NDP-α-MSH) MC4-R (hMC4-R [3]) | Inhibition at 1 μM (NDP-α-MSH) MC5-R (hMC5-R [4]) | further results
1 | CC(=O)N[C@H](Cc1ccc2ccccc2c1)C(=O)N1C[C@@H](CC(C)C)N(CCc2ccc3ccccc3c2)C[C@@H]1CCCNC(=N)N [Example 13, N-{2-[2(S)-(3-Guanidino-propyl)-5(R)-isobutyl-4(2-naphthalen-2-yl-ethyl)-piperazin-1-yl]-1(R)-naphthalen-2-ylmethyl-2-oxo-ethyl}-acetamide] | 474 nM | 6 nM | 6 nM | 378 nM | 100% | 3.7 nM | 3.7 nM | Antag (“Antag” means antagonist) | no intrinsic activity | antagonist | – | – | – | – | – | Ki (MC1-R [1]): 4620 nM; Inhibition at 1 μM (NDP-α-MSH) MC1-R (MC1-R [1]; 1 μM compound): 0%; pA2 value at MC4-R (hMC4-R [6]; Schild plot vs NDP-α-MSH): 7.3; functional status at MC1-R (MC1-R [7]): no intrinsic activity (intrinsic activity below 0.1 (10%) is classified as inactive or having no intrinsic activity); functional status at MC3-R (hMC3-R [8]): no intrinsic activity (intrinsic activity below 0.1 (10%) is classified as inactive or having no intrinsic activity); functional status at MC5-R (hMC5-R [9]): partial agonist (intrinsic activity between 0.1 (10%) and 0.7 (70%) is classified as a partial agonist); inverse agonism (basal cAMP) (MC4-R [10]): inverse agonism
2 | NCCCC[C@H]1C(=O)N(CCc2ccc3ccccc3c2)CCN1C(=O)[C@@H](Cc1ccc(Cl)cc1Cl)NC(=O)/C=C/c1ccccc1 [Example 21, (E)-N—[(R)-2-[(S)-2-(4-Amino-butyl)-4-(2-naphthalen-2-yl-ethyl)-3-oxo-piperazin-1-yl]-1-(2,4-dichloro-benzyl)-2-oxo-ethyl]-3-phenyl-acrylamide] | 648 nM | 6 nM | 6 nM | 398 nM | 100% | 5 nM | 5 nM | pAg (“pAg” means partial agonist) | 0.2 | – | 502 nM | 30% | 46% | 96% | 60% | attenuation of binding of α-MSH and AgRP to MC4-R (hMC4-R [3]; both ligands (NDP-α-MSH and AgRP), summary): attenuate the binding of both α-MSH and AgRP to MC4-R; EC50 (hMC4-R [6]; cAMP assay, read-out: EC50 (nM) at MC4-R): 112 nM
3 | N=C(N)NCCC[C@H]1CN(C(=O)Cc2ccc3ccccc3c2)[C@H](Cc2ccccc2)CN1C[C@H](N)Cc1ccc2ccccc2c1 [Example 30, N-{3-[1-[2(R)-Amino-3-naphthalen-2-yl-propyl]-5(R)-benzyl-4-(2-naphthalen-2-yl-acetyl)-piperazin-2(S)-yl]-propyl}-guanidine] | 387 nM | 55 nM | 61 nM | 178 nM | – | 90 nM | 90 nM | Inactive | – | inactive | 2770 nM | 32% | 49% | 92% | 87% | –
4 | Forskolin [reference compound] | – | – | – | – | – | – | – | – | – | – | – | – | – | – | – | total response relative to NDP-α-MSH (MC4-R [12]): three-fold higher; EC50 (MC4-R [12]; read-out: EC50 value (cAMP stimulation)): ~5000 nM
